# {C6NH2} = C6 amino linker (-C6-NH2)
# Assay: fmoc spps; Rink amide resin (1.0 mmol/g); HATU/DIEA (cyclization)
# Conditions: conjugation step, scale 1 mmol, TFA salt
substance,measurement,value
"5'-GCT ATT ACC TTA ACC CAG-3' -C6-NH2 (all PMO monomers) (SEQ ID NO: 222) (GCTATTACCTTAACCCAG; all phosphorodiamidate morpholino (PMO), 3' {C6NH2})",final purity method not stated,>99%

# Reference: patent US20230020092 (published 2023)
